The SangsterLogP compilation

Assay: method code SF-GLC, from DOI: 10.1007/bf00316585, PMID: 6732504

Point of comparison: `N#CCCCCl`, logP 0.56. Against it:
- N#CCCCl — lower, 0.18
- CCCC#N — within 0.2 log units, 0.53
- N#CCCO — lower, -0.94
- CC(C)C#N — within 0.2 log units, 0.46
- C=C(C)C#N — within 0.2 log units, 0.68
- C=CCC#N — within 0.2 log units, 0.4
- N#CCCl — lower, 0.23
- CCCCCCCC#N — higher, 2.75
- CCCCCC#N — higher, 1.66
- CCCCCCCCC#N — higher, 3.12
- CC(C)CCC#N — higher, 1.54
